# Assay results reported in ChEMBL document CHEMBL1122225, “Synthesis and platelet aggregation inhibiting activity of prostaglandin D analogues” (J Med Chem, 1983).
# Legend:
# [1] = Relative potency with respect to PGE1 = 100 in rat blood pressure assay; format: functional
# [2] = Potency in gerbil colon stimulation assay compared to PGE1.; format: functional
# Homo sapiens = species: Homo sapiens; experiment: In vitro inhibition of ADP-induced platelet aggregation in human platelet rich plasma.; format: functional
# [3] = Relative potency with respect to PGF2-alpha = 100 in rat blood pressure assay
Structure (SMILES),Relative potency [1],Relative potency [2],IC50 (Homo sapiens),Relative potency [3]
CCCCC[C@H](O)C/C=C1/C(=O)C[C@H](O)[C@@H]1C/C=C\CCCC(=O)O,10,1,0.1 µg/mL,
CCCCC/C=C/C=C1/C(=O)C[C@H](O)[C@@H]1C/C=C\CCCC(=O)O,0.1,<0.1,0.32 µg/mL,
CCCCC[C@H](O)/C=C/C1C(=O)C[C@H](O)[C@@H]1CCOCCCC(=O)O (stereo partly drawn),,0.3,0.032 µg/mL,
CCCCC[C@H](O)/C=C/C1C(=O)CC(O)[C@@H]1C/C=C\CCCC(=O)O (stereo partly drawn),10,0.3,0.0001 µg/mL,
CCCCC[C@H](O)/C=C/C1C(=O)CC[C@@H]1C/C=C\CCCC(=O)O (stereo partly drawn),10,1,0.001 µg/mL,
CCCCC[C@H](O)/C=C/C1C(=O)CC2OC(=O)CCC/C=C\C[C@@H]21 (stereo partly drawn),1,0.3,0.032 µg/mL,
CC/C=C\C[C@H](O)/C=C/C1C(=O)C[C@H](O)[C@@H]1C/C=C\CCCC(=O)O (stereo partly drawn),10,1,0.0032 µg/mL,
CCCCC[C@H](O)/C=C/C1C(=O)C[C@H](O)[C@@H]1CCCCCCC(=O)O (stereo partly drawn),0.1,3,0.32 µg/mL,
CCCCC[C@H](O)/C=C/C1C(=O)C[C@H](O)[C@@H]1C/C=C\CCCCCC(=O)O (stereo partly drawn),,<0.1,1 µg/mL,
O=C(O)CCC/C=C\C[C@@H]1C(/C=C/[C@@H](O)CCc2ccccc2)C(=O)C[C@@H]1O (stereo partly drawn),,10,3.2 µg/mL,32
CCCCC[C@@H]1/C=C\C2C(=O)CC(O)[C@@H]2C/C=C\CCCC(=O)O1 (stereo partly drawn),0.1,0.1,1 µg/mL,
CCCCC[C@H](O)CCC1C(=O)C[C@H](O)[C@@H]1CCCCCCC(=O)O (stereo partly drawn),,0.1,3.2 µg/mL,0.3
CCCCC[C@](C)(O)/C=C/C1C(=O)C=C[C@@H]1C/C=C\CCCC(=O)O (stereo partly drawn),0.1,0.3,1 µg/mL,
CCCCC[C@H](O)/C=C/C1C(=O)C=C[C@@H]1C/C=C\CCCC(=O)O (stereo partly drawn),10,0.1,0.0032 µg/mL,
CCCCC[C@](C)(O)/C=C/C1C(=O)C[C@H](O)[C@@H]1C/C=C\CCCC(=O)O (stereo partly drawn),,10,0.32 µg/mL,32
CCCCC(C)(C)[C@H](O)/C=C/C1C(=O)C[C@H](O)[C@@H]1C/C=C\CCCC(=O)O (stereo partly drawn),,3,,32
CCCCC[C@H](O)/C=C/[C@H]1C(=O)C[C@H](O)[C@@H]1C/C=C/CCCC(=O)O [[3H]PGD2],10,3,0.0032 µg/mL,
